Test results: patent US12384806B2, “Isopaucifloral F phosphate compound and pharmaceutical use thereof” (FUDAN UNIVERSITY, priority 2020, dated 2025)

Key:
[1] = test system: mouse osteoblast precursor cells MC3T3-E1 Subclone 14; assay: Differentiation-promoting effect, ALP enzyme activity assay; type: cell-based; details: for ALP enzyme activity relative values (experimental group/blank group): 6th day
Text: (2) Study on the differentiation-promoting effect of compounds on mouse osteoblast precursor cells MC3T3-E1 Subclone 14 (see Table 2): MC3T3-E1 subclone 14 cells were digested with pancreatin and collected and then seeded into a 6-well plate at 4×10^4/well. […] The administration concentrations of the compounds were 10^−4˜10^−9 M, respectively; and the administration concentration of the positive control drug group genistein GEN was 10^−6 M, a concentration at which it had the highest osteogenesis promoting ability as reported in the literature. On the 6th day of administration, each well was washed twice with PBS, 150 uL of Western and IP cell lysate (with no protein inhibitor, commercially available from Beyotime) was then added to lyse the cells. This operation was performed on ice. 50 uL of cell lysate was diluted to 250 uL with PBS. 50 uL of dilution was additionally transferred to a 96-well plate for an ALP enzyme activity assay. The absorbance of each well in the 96-well plate was measured with a microplate reader at 405 nm.

[2] = test system: mouse osteoblast precursor cells MC3T3-E1 Subclone 14; assay: Proliferation-promoting effect by MTT assay; type: cell-based; details: for Proliferation Rate: 6th day, MTT
Protocol: Genistein and estradiol were used as positive control groups. MC3T3-E1 Subclone 14 was cultured using the α-MEM medium containing 10% FBS in a constant temperature incubator at 37° C. with 5% CO2. The MC3T3-E1 Subclone 14 cells in logarithmic growth phase and in good condition were digested with addition of an appropriate amount of trypsin (commercially available from GIBCO), and the cells were collected. The cells were resuspended in the α-MEM medium containing 10% FBS, and seeded on a 96-well plate at an amount of 2000 cells per well. After cell adhesion, the medium was changed to the α-MEM medium containing 10% FBS of different concentrations of compounds at 200 μL per well. The cells with the culture fluid containing 0.2% DMSO added thereto were used as a negative control group of the medium. The medium was added to the wells without seeded cells as a blank control group. Six replicate wells were set for each concentration. The medium was changed once every 2 days, and on the 6th day of administration, a 20 μL MTT/PBS solution at 5 mg/mL was added to the above 96-well plate, and the incubation was continued for 4 hours. After the time point, the liquid was carefully aspirated and 150 μL of DMSO was added to each well to completely dissolve the purple crystal formazan formed by live cells and MTT. The optical density (OD) value was measured at 490 nm with a microplate reader. The proliferation rate was calculated according to the following formula: Proliferation rate=[(the average OD value of the administration group−the average OD value of the blank group)/(the average OD value of the culture fluid control group−the average OD value of the blank group)].

[3] = test system: osteoblasts; assay: Formation of calcium nodules in osteoblasts (Alizarin Red); type: cell-based, mouse; details: 15th day
Protocol: (3) Study on the effect of target compounds on the formation of calcium nodules in osteoblasts (see FIG. 1 and Table 3 for details): after being digested, the cells were seeded into a 6-well plate at 4×10^4/well. […] The administration concentrations of the compounds were 10^−4˜10^−9 M, respectively; and the concentration of genistein is 10^−6 M. On the 15th day of administration, the medium was aspirated, each well was then washed twice with PBS, the cells were then fixed with 95% ethanol for 10 minutes and rinsed twice with double distilled water. 2 mL of a 0.1% Alizarin Red-Tris. HCl solution (PH=8.3) was added to each well, the cells were incubated at 37° C. for 30 minutes, then rinsed with double distilled water for several times, dried, and mounted. The formation of calcium nodules was further observed by taking pictures under a 40× microscope. Afterwards, 1 mL of a 10% cetylpyridinium chloride solution was added to each well, and the incubation was carried out for 30 minutes to release the Alizarin Red staining. The solution was transferred to a 96-well plate at 200 uL per well, the absorbance was measured at 562 nm using a microplate reader, and a quantitative analysis of calcium nodules was performed.

[4] = molecular target: estrogen receptor ERβ (Homo sapiens, UniProt Q92731); assay: Estrogen receptor agonism (earlier experiments of the research team)
[5] = Metabolic stability in human liver microsomes; type: in vitro ADME; details: 37° C.
Protocol: Experimental method: the incubation system comprising human liver microsomes, cofactors, and PBS was pre-incubated at 37° C. for 3 minutes, and a substrate was added to start the reaction. Sampling was performed at 0, 1, 5, 10, 15, 20, 30, and 60 minutes after the start of the reaction, and an appropriate terminator was added to terminate the reaction. Sample treatment (n=3): appropriate internal standards were added to each; after vortexing, centrifugation was performed at a high speed, the supernatant was taken, and the substrate was detected by employing HPLC-MS/MS. The peak area at a time point 0 min was taken as 100%. Peak areas at other time points were converted to the remaining percentage, the natural logarithm of the remaining percentage at each time point versus incubation time was plotted, and a slope (−k) was calculated by linear regression, and then CLint (mL·min^−1·mg^−1) was calculated based on the inherent clearance (CLint)=(k×the volume of incubation solution)/mass of liver microsomes.

[6] = test system: mouse mononuclear macrophages RAW264.7; assay: Bone resorption inhibition: TRAP-positive multinucleated osteoclast count; type: cell-based; details: 5 days; for Number of Osteoclasts (cell): control group 117
Protocol: After being cultured for 5 days, the cells were stained with a tartrate-resistant acid phosphatase TRAP incubation solution, mounted with glycerol gelatin, and observed under light microscope to count stained TRAP-positive multinucleated cells (as shown in FIG. 2). The inhibition rate of the administrated drug on the number of TRAP-positive multinucleated cells is (nTRAP-positive multinucleated osteoclasts in the negative control group−nTRAP-positive multinucleated osteoclasts in the drug administration group)/nTRAP-positive multinucleated osteoclasts in the negative control group×100%.

[7] = Determination of lipid-water partition coefficients (n-octanol/water, HPLC); type: physicochemical; details: 37° C.
Protocol: (1) Determination of lipid-water partition coefficients: a standard curve was first made. […] Their respective solution was subjected to the HPLC sample injection analysis. HPLC conditions were: mobile phase: 5%˜95% acetonitrile/water, gradient elution, a flow rate of 0.6 mL/min, a sample injection volume of 10 μL, a detection wavelength of 254/280 nm, run for 20 min. The retention time and peak area were recorded, and the standard curve was obtained by regressing the concentration and the peak area.
Moreover, 10 mL of water and 10 mL of n-octanol were taken into a 25 mL eggplant-shaped flask and stirred for 24 hours until the two phases were saturated with each other. The mixed solution was then transferred to a separatory funnel. Let it stand for liquid separation. 1 mL of the upper layer (saturated n-octanol layer) was taken, about 2 mg of the compound to be tested was added to vortex for 5 minutes to fully dissolve, and 1 mL of saturated aqueous phase was additionally taken and mixed with the saturated n-butanol phase in which the compound was dissolved. After vortexing for 5 minutes and oscillation for 24 hours in a water bath at 37° C., centrifugation was performed at 3500 rpm for 15 minutes. The upper n-octanol layer and the lower aqueous layer were respectively taken for the sample injection analysis under HPLC conditions. […]

Chain of estrogen receptor ERβ (Q92731 whole entry): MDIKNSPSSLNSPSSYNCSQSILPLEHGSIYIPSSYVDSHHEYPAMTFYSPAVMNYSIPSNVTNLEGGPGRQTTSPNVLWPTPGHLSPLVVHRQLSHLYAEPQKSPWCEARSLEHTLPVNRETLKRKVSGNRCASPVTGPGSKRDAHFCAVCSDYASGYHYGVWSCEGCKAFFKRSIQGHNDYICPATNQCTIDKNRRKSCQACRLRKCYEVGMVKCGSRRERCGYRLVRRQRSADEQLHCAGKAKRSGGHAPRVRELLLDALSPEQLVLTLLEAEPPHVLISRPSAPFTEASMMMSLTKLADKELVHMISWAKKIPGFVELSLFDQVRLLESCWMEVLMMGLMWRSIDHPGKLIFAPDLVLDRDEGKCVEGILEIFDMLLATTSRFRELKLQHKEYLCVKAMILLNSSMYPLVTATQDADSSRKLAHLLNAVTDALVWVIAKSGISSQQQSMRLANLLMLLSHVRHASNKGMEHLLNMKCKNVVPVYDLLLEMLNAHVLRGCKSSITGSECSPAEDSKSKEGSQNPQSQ

SMILES: CCOP(=O)(OCC)OC1=C(c2cc(OC)cc(OC)c2)C(c2ccc(OP(=O)(OCC)OCC)cc2)c2c(OC)cc(OC)cc21 (stereo not drawn) [7a]
- ALP enzyme activity relative values (experimental group/blank group) ([1]; 10^−4 M): 2.362 ± 0.04
- ALP enzyme activity relative values (experimental group/blank group) ([1]; 10^−5 M): 1.440 ± 0.31
- ALP enzyme activity relative values (experimental group/blank group) ([1]; 10^−6 M): 1.023 ± 0.05
- ALP enzyme activity relative values (experimental group/blank group) ([1]; 10^−7 M): 0.877 ± 0.01
- ALP enzyme activity relative values (experimental group/blank group) ([1]; 10^−8 M): 0.860 ± 0.01
- ALP enzyme activity relative values (experimental group/blank group) ([1]; 10^−9 M): 0.861 ± 0.05

SMILES: CCOP(=O)(OCC)OC1=C(c2cc(OC)cc(OC)c2)C(c2ccc(OC)cc2)c2c(OC)cc(OC)cc21 (stereo not drawn) [7b]
- ALP enzyme activity relative values (experimental group/blank group) ([1]; 10^−4 M): 0.919 ± 0.04
- ALP enzyme activity relative values (experimental group/blank group) ([1]; 10^−5 M): 0.986 ± 0.17
- ALP enzyme activity relative values (experimental group/blank group) ([1]; 10^−6 M): 0.993 ± 0.01
- ALP enzyme activity relative values (experimental group/blank group) ([1]; 10^−7 M): 1.195 ± 0.02
- ALP enzyme activity relative values (experimental group/blank group) ([1]; 10^−8 M): 1.097 ± 0.07
- ALP enzyme activity relative values (experimental group/blank group) ([1]; 10^−9 M): 0.899 ± 0.11

SMILES: C[C@]12CC[C@@H]3c4ccc(O)cc4CC[C@H]3[C@@H]1CC[C@@H]2O [E2, estradiol]
- Proliferation Rate ([2]; 10^−4 M): 0.05 ± 0.002
- Proliferation Rate ([2]; 10^−5 M): 0.82 ± 0.003
- Proliferation Rate ([2]; 10^−6 M): 1.07 ± 0.019
- Proliferation Rate ([2]; 10^−7 M): 1.08 ± 0.003
- Proliferation Rate ([2]; 10^−8 M): 1.07 ± 0.005
- Proliferation Rate ([2]; 10^−9 M): 1.06 ± 0.003
- ALP enzyme activity relative values (experimental group/blank group) ([1]; 10^−8 M): 1.050 ± 0.02
- Relative values of calcium nodule amount (experimental group/blank group) ([3]; 10^−8 M): 1.007 ± 0.02

SMILES: O=c1c(-c2ccc(O)cc2)coc2cc(O)cc(O)c12 [GEN, genistein]
- Proliferation Rate ([2]; 10^−4 M): 0.02 ± 0.0003
- Proliferation Rate ([2]; 10^−5 M): 0.71 ± 0.007
- Proliferation Rate ([2]; 10^−6 M): 1.05 ± 0.019
- Proliferation Rate ([2]; 10^−7 M): 0.99 ± 0.003
- Proliferation Rate ([2]; 10^−8 M): 1.01 ± 0.005
- Proliferation Rate ([2]; 10^−9 M): 1.03 ± 0.003
- ALP enzyme activity relative values (experimental group/blank group) ([1]; 10^−6 M): 1.341 ± 0.01
- Relative values of calcium nodule amount (experimental group/blank group) ([3]; 10^−6 M): 1.028 ± 0.03

SMILES: O=C1c2cc(O)cc(O)c2[C@@H](c2ccc(O)cc2)[C@@H]1c1cc(O)cc(O)c1 [Isopaucifloral F, isopaucifloral F]
- Proliferation Rate ([2]; 10^−4 M): 1.24 ± 0.028
- Proliferation Rate ([2]; 10^−5 M): 1.06 ± 0.014
- Proliferation Rate ([2]; 10^−6 M): 1.02 ± 0.024
- Proliferation Rate ([2]; 10^−7 M): 0.98 ± 0.020
- Proliferation Rate ([2]; 10^−8 M): 0.98 ± 0.045
- Proliferation Rate ([2]; 10^−9 M): 0.95 ± 0.016
- proliferation rates ([2]; highest value of each compound, concentration not given): 124%
- activity at estrogen receptor ERβ [4]: selective agonist
- ALP enzyme activity relative values (experimental group/blank group) ([1]; 10^−4 M): 0.732 ± 0.03
- ALP enzyme activity relative values (experimental group/blank group) ([1]; 10^−5 M): 0.951 ± 0.04
- ALP enzyme activity relative values (experimental group/blank group) ([1]; 10^−6 M): 0.954 ± 0.02
- ALP enzyme activity relative values (experimental group/blank group) ([1]; 10^−7 M): 1.135 ± 0.06
- ALP enzyme activity relative values (experimental group/blank group) ([1]; 10^−8 M): 1.029 ± 0.11
- ALP enzyme activity relative values (experimental group/blank group) ([1]; 10^−9 M): 0.864 ± 0.05
- ALP enzyme activity, times those of the control group ([1]; highest value, concentration not given): 1.14 times
- ALP enzyme activity increased by ([1]; versus control group, concentration not given): 13.5%
- CLint(liver) [5]: 123.4 mL/min/kg
- T1/2 [5]: 10.1 min
- Relative Inhibition Rates (%) ([6]; 10^−4 M): 28.2%
- Number of Osteoclasts (cell) ([6]; 10^−4 M): 84 cell
- Relative Inhibition Rates (%) ([6]; 10^−6 M): 27.4%
- Number of Osteoclasts (cell) ([6]; 10^−6 M): 85 cell
- Relative Inhibition Rates (%) ([6]; 10^−8 M): 12.8%
- Number of Osteoclasts (cell) ([6]; 10^−8 M): 102 cell
- log P [7]: 1.34
- Relative values of calcium nodule amount (experimental group/blank group) ([3]; 10^−4 M): 0.982 ± 0.04
- Relative values of calcium nodule amount (experimental group/blank group) ([3]; 10^−5 M): 0.915 ± 0.03
- Relative values of calcium nodule amount (experimental group/blank group) ([3]; 10^−6 M): 0.932 ± 0.03
- Relative values of calcium nodule amount (experimental group/blank group) ([3]; 10^−7 M): 0.964 ± 0.03
- Relative values of calcium nodule amount (experimental group/blank group) ([3]; 10^−8 M): 0.917 ± 0.03
- Relative values of calcium nodule amount (experimental group/blank group) ([3]; 10^−9 M): 0.916 ± 0.03

SMILES: O=C(c1ccc(OCCN2CCCCC2)cc1)c1c(-c2ccc(O)cc2)sc2cc(O)ccc12 [Raloxifene]
- Number of Osteoclasts (cell) ([6]; 10^−6 M): 64 cell
- Number of Osteoclasts (cell) ([6]; 10^−8 M): 67 cell
- inhibition at 1 µM ([6]; Mus musculus, RAW264.7, 120 h, 10^−6 M, read-out: Relative Inhibition Rates (%)): 45.3%
- inhibition at 0.01 µM ([6]; Mus musculus, RAW264.7, 120 h, 10^−8 M, read-out: Relative Inhibition Rates (%)): 42.7%
